This assay has as its system breast cancer cell lines. Briefly: sulforhodamine B (SRB) drug sensitivity assay in breast cancer cell line panel. The format is cell-based. As to conditions: panel of 52 breast cancer cell lines, 5 days of treatment, FIG. 1. An excerpt: A breast cancer cell line panel, previously described (Marcotte et al., Cell, 164(1-2), 2016293-309), was assembled for in vitro drug sensitivity profiling, and mated with available gene expression data. The RNA-seq reads were aligned to the Ensembl Genome Reference Consortium release GRCh38 using Kallisto pipeline (Bray et al., Nature Biotechnology, 201634(5), 525-527). Expression values were computed as log2(TPM+0.001), where TPM represents the number of transcripts per million mapped reads units which control for sequence length and sequencing depth. The status of SKA3 expression (high vs low expression) can be determined from a reference population such as the breast cancer TCGA cohort (see FIG. 6).
Response of breast cancer cell lines to compound CFI-402257 (a TTK inhibitor, see the structure below) was evaluated using sulforhodamine B (SRB) assays. The compound was synthesized as previously described (See Liu et al., ACS Medicinal Chemistry Letters, 20167(7), 671-675).
Cells were seeded in 96-well plates and treated with serial drug dilutions. After 5 days of treatment, cells were fixed, stained with SRB, solubilized, and absorbance quantified on a spectrophotometer. For all drug response assays, cell viabilities are reported as the proportion of growth in drug relative to DMSO treated conditions. […]

Consider 1 molecule from patent US20210290624A1, “METHODS OF TREATING CANCERS CHARACTERIZED BY A HIGH EXPRESSION LEVEL OF SPINDLE AND KINETOCHORE ASSOCIATED COMPLEX SUBUNIT 3 (SKA3) GENE” (UNIVERSITY HEALTH NETWORK, priority 2018, published 2021).

Take `Cc1cc(-c2cnn3c(NC[C@H]4C[C@@](C)(O)C4)cc(Oc4cccnc4)nc23)ccc1C(=O)NC1CC1` [CFI-402257]: the “in vitro sensitivity (area above the drug dose-response curve, AAC)” value is “Differential in vitro sensitivity”.
